Reference: PubChem BioAssay (NCI)
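GI50 = concentration required for 50% inhibition of growth. At the TGI there is no net growth.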

Key:
Experiment in all cases: NCI tumour cell line growth inhibition, 384-well format
786-0 renal = tested on: 786-0 renal
A498 renal = tested on: A498 renal
A549 NSCLC = tested on: A549 NSCLC
ACHN renal = tested on: ACHN renal
BT-549 breast = tested on: BT-549 breast
CAKI-1 renal = tested on: CAKI-1 renal
CCRF-CEM leukemia = tested on: CCRF-CEM leukemia
COLO 205 colon = tested on: COLO 205 colon
DU-145 prostate = tested on: DU-145 prostate
EKVX NSCLC = tested on: EKVX NSCLC
HCC-2998 colon = tested on: HCC-2998 colon
HCT-116 colon = tested on: HCT-116 colon
HCT-15 colon = tested on: HCT-15 colon
HL-60(TB) leukemia = tested on: HL-60(TB) leukemia
HOP-62 NSCLC = tested on: HOP-62 NSCLC
HOP-92 NSCLC = tested on: HOP-92 NSCLC
HS 578T breast = tested on: HS 578T breast
HT29 colon = tested on: HT29 colon
IGROV1 ovarian = tested on: IGROV1 ovarian
K-562 leukemia = tested on: K-562 leukemia
KM12 colon = tested on: KM12 colon
LOX IMVI melanoma = tested on: LOX IMVI melanoma
M14 melanoma = tested on: M14 melanoma
MALME-3M melanoma = tested on: MALME-3M melanoma
MCF7 breast = tested on: MCF7 breast
MDA-MB-435 melanoma = tested on: MDA-MB-435 melanoma
MDA-MB-468 breast = tested on: MDA-MB-468 breast
MOLT-4 leukemia = tested on: MOLT-4 leukemia
NCI-H226 lung = tested on: NCI-H226 lung
NCI-H23 lung = tested on: NCI-H23 lung
NCI-H322M lung = tested on: NCI-H322M lung
NCI-H460 NSCLC = tested on: NCI-H460 NSCLC
NCI-H522 lung = tested on: NCI-H522 lung
NCI/ADR-RES ovarian = tested on: NCI/ADR-RES ovarian
OVCAR-3 ovarian = tested on: OVCAR-3 ovarian
OVCAR-4 ovarian = tested on: OVCAR-4 ovarian
OVCAR-8 ovarian = tested on: OVCAR-8 ovarian
PC-3 prostate = tested on: PC-3 prostate
RPMI-8226 leukemia = tested on: RPMI-8226 leukemia
RXF 393 renal = tested on: RXF 393 renal
SF-268 CNS = tested on: SF-268 CNS
SF-295 CNS = tested on: SF-295 CNS
SF-539 CNS = tested on: SF-539 CNS
SK-MEL-2 melanoma = tested on: SK-MEL-2 melanoma
SK-MEL-28 melanoma = tested on: SK-MEL-28 melanoma
SK-MEL-5 melanoma = tested on: SK-MEL-5 melanoma
SK-OV-3 ovarian = tested on: SK-OV-3 ovarian
SN12C renal = tested on: SN12C renal
SNB-19 CNS = tested on: SNB-19 CNS
SNB-75 CNS = tested on: SNB-75 CNS
SW-620 colon = tested on: SW-620 colon
TK-10 renal = tested on: TK-10 renal
U251 glioblastoma = tested on: U251 glioblastoma
UACC-257 melanoma = tested on: UACC-257 melanoma
UACC-62 melanoma = tested on: UACC-62 melanoma

Cc1ccc(S(=O)(=O)Oc2ccc3sc4cccc(NCCN(C)C)c4c(=O)c3c2)cc1
GI50 ([…]-0 renal): > 100000 nM | TGI (786-0 renal): > 100000 nM | GI50 (A498 renal): > 100000 nM | TGI (A498 renal): > 100000 nM | GI50 (A549 NSCLC): 1850 nM | TGI (A549 NSCLC): 3340 nM | GI50 (ACHN renal): 1730 nM | TGI (ACHN renal): 3140 nM | GI50 (BT-549 breast): 1860 nM | TGI (BT-549 breast): 3280 nM | GI50 (CAKI-1 renal): 1650 nM | TGI (CAKI-1 renal): 3040 nM | GI50 (CCRF-CEM leukemia): 1700 nM | TGI (CCRF-CEM leukemia): 3110 nM | GI50 (COLO 205 colon): 1940 nM | TGI (COLO 205 colon): 3400 nM | GI50 (DU-145 prostate): 1970 nM | TGI (DU-145 prostate): 3430 nM | GI50 (EKVX NSCLC): 1850 nM | TGI (EKVX NSCLC): 3280 nM | GI50 (HCC-2998 colon): 1240 nM | TGI (HCC-2998 colon): 2510 nM | GI50 (HCT-116 colon): 1830 nM | TGI (HCT-116 colon): 3300 nM | GI50 (HCT-15 colon): > 100000 nM | TGI (HCT-15 colon): > 100000 nM | GI50 (HL-60(TB) leukemia): 787 nM | TGI (HL-60(TB) leukemia): 2060 nM | GI50 (HOP-62 NSCLC): 2100 nM | TGI (HOP-62 NSCLC): 3560 nM | GI50 (HOP-92 NSCLC): 1900 nM | TGI (HOP-92 NSCLC): 3320 nM | GI50 (HS 578T breast): 1920 nM | TGI (HS 578T breast): 3350 nM | GI50 (HT29 colon): 1710 nM | TGI (HT29 colon): 3100 nM | GI50 (IGROV1 ovarian): 1650 nM | TGI (IGROV1 ovarian): 3010 nM | GI50 (K-562 leukemia): 1910 nM | TGI (K-562 leukemia): 3330 nM | GI50 (KM12 colon): 1790 nM | TGI (KM12 colon): 3230 nM | GI50 (LOX IMVI melanoma): 1780 nM | TGI (LOX IMVI melanoma): 3200 nM | GI50 (M14 melanoma): 2050 nM | TGI (M14 melanoma): 3490 nM | GI50 (MALME-3M melanoma): 1890 nM | TGI (MALME-3M melanoma): 3310 nM | GI50 (MCF7 breast): 1380 nM | TGI (MCF7 breast): 2710 nM | GI50 (MDA-MB-435 melanoma): 1780 nM | TGI (MDA-MB-435 melanoma): 3180 nM | GI50 (MDA-MB-468 breast): 2490 nM | TGI (MDA-MB-468 breast): 3960 nM | GI50 (MOLT-4 leukemia): 1590 nM | TGI (MOLT-4 leukemia): 2950 nM | GI50 (NCI-H226 lung): 1700 nM | TGI (NCI-H226 lung): 3080 nM | GI50 (NCI-H23 lung): 1990 nM | TGI (NCI-H23 lung): 3420 nM | GI50 (NCI-H322M lung): 2030 nM | TGI (NCI-H322M lung): 3480 nM | GI50 (NCI-H460 NSCLC): 1720 nM | TGI (NCI-H460 NSCLC): 3220 nM | GI50 (NCI-H522 lung): > 100000 nM | TGI (NCI-H522 lung): > 100000 nM | GI50 (NCI/ADR-RES ovarian): 1830 nM | TGI (NCI/ADR-RES ovarian): 3240 nM | GI50 (OVCAR-3 ovarian): 1910 nM | TGI (OVCAR-3 ovarian): 3330 nM | GI50 (OVCAR-4 ovarian): > 100000 nM | TGI (OVCAR-4 ovarian): > 100000 nM | GI50 (OVCAR-8 ovarian): 2110 nM | TGI (OVCAR-8 ovarian): 3590 nM | GI50 (PC-3 prostate): 1810 nM | TGI (PC-3 prostate): 3220 nM | GI50 (RPMI-8226 leukemia): 2280 nM | TGI (RPMI-8226 leukemia): 3750 nM | GI50 (RXF 393 renal): 1930 nM | TGI (RXF 393 renal): 3360 nM | GI50 (SF-268 CNS): 2200 nM | TGI (SF-268 CNS): 3670 nM | GI50 (SF-295 CNS): > 100000 nM | TGI (SF-295 CNS): > 100000 nM | GI50 (SF-539 CNS): 1860 nM | TGI (SF-539 CNS): 3290 nM | GI50 (SK-MEL-2 melanoma): 1990 nM | TGI (SK-MEL-2 melanoma): 3420 nM | GI50 (SK-MEL-28 melanoma): 1950 nM | TGI (SK-MEL-28 melanoma): 3380 nM | GI50 (SK-MEL-5 melanoma): 1290 nM | TGI (SK-MEL-5 melanoma): 2580 nM | GI50 (SK-OV-3 ovarian): 1640 nM | TGI (SK-OV-3 ovarian): 3020 nM | GI50 (SN12C renal): 1910 nM | TGI (SN12C renal): 3330 nM | GI50 (SNB-19 CNS): 2080 nM | TGI (SNB-19 CNS): 3540 nM | GI50 (SNB-75 CNS): 2090 nM | TGI (SNB-75 CNS): 3530 nM | GI50 (SW-620 colon): 1880 nM | TGI (SW-620 colon): 3350 nM | GI50 (TK-10 renal): > 100000 nM | TGI (TK-10 renal): > 100000 nM | GI50 (U251 glioblastoma): 2070 nM | TGI (U251 glioblastoma): 3540 nM | GI50 (UACC-257 melanoma): 1890 nM | TGI (UACC-257 melanoma): 3300 nM | GI50 (UACC-62 melanoma): 1940 nM | TGI (UACC-62 melanoma): 3380 nM
